The data set can be described thus: Weight loss after P. aeruginosa lung infection. As to conditions: for Mean weight loss (% of initial weight): mean ± SEM. The class given is in vivo, mice. The procedure: Fenretinide Diet Supplementation. Examples 2 to 6: fenretinide (Sigma-Aldrich, Oakville, ON) powder was resuspended in 95% ethanol and subsequently incorporated in the Peptamen liquid diet. It was protected from light and kept at 4° C. before being given to the mice (5 mg/kg per day per mouse). Mock-treated diets were prepared similarly by adding ethanol to the Peptamen diet but omitting the fenretinide supplementation. The diet was given every morning for 28 consecutive days with specific monitoring of the quantity consumed by the mice in each cage. Examples 7 to 12: fenretinide powder was kindly provided by Dr. Robert Smith (NIH; Bethesda, Md., USA). Fenretinide was resuspended in 95% ethanol to make a 2 μg/μL concentration. Approximately 40 μL of this preparation was incorporated into the Peptamen liquid diet (5 mg/kg per day per mouse). The prepared food containing fenretinide was then stored in the dark at 4° C. for no more than 3 hours prior to being administered to the mice. To ensure that the entire drug dose was consumed, the mice were given 10 mL of fenretinide-treated Peptamen, which represents ⅔ of the daily mouse food consumption, in the late afternoon. The remaining 5 mL of Peptamen (without fenretinide) was given the following morning. Mice were treated twice a week for 4 weeks. During the treatment period each mouse was kept in a separate cage (including WT mice) and was monitored to ensure that the entire amount of Peptamen containing the fenretinide or with out was consumed. The diet for the mock-treated control group was prepared and administered similarly to that described above, by adding the same volume of ethanol to the Peptamen diet but omitting the fenretinide supplementation.
Mouse Lung Infection. Mice were anaesthetized with a combination of ketamine (7.5 mg/mL) and xylazine (0.5 mg/mL) administered intraperitoneally at a dose of 20 mL/kg of body weight. Once the mouse was successfully anaesthetized, the animal was installed under binoculars (Microscope M650, Wild Leitz, Willowdale, ON) in the vertical position and held on a restraining board by holding the animal by its upper incisor teeth (Guilbault, et al. (2005) supra). The tongue was then gently pulled to the side of the mouth and a 26-G gavage needle was inserted into the mouth and guided through the pharynx gently touching the vocal cords to see the lumen of the trachea; the needle was then introduced into the trachea to reach the lung for the bilateral injection of the 50 microliter inoculum. After inoculation, the animal regained righting reflex within an hour. A final dose of 1×10^6 P. aeruginosa was used for infection using wild-type and Cftr-KO mice. Mice were monitored 3 times daily; the maximum weight loss allowed was 15%. Mice were sacrificed by CO2 overdose.

As to `CC1=C(/C=C/C(C)=C/C=C/C(C)=C/C(=O)Nc2ccc(O)cc2)C(C)(C)CCC1` [fenretinide, all-trans-N-(4-hydroxyphenyl) retinamide], the “Mean weight loss (% of initial weight)” value is listed as −4.0 ± 1.1 % of initial weight (Cftr-KO mice, day 1 post-infection); −12.9 ± 0.9 % of initial weight (Cftr-KO mice, day 2 post-infection); −15.3 ± 1.8 % of initial weight (Cftr-KO mice, day 3 post-infection); −4.8 ± 0.4 % of initial weight (Wild-type mice, day 1 post-infection); −9.9 ± 0.5 % of initial weight (Wild-type mice, day 2 post-infection); −11.1 ± 1.2 % of initial weight (Wild-type mice, day 3 post-infection). Further, the “Effect on mean weight loss, fenretinide-treated vs mock-treated” value (day 1 to day 3 post-infection) was “no significant difference”.

These data come from patent US8680153B2, “Method for correcting a lipid imbalance in a subject” (The Royal Institution for the Advancement of …, priority 2005, dated 2014).
